Source: the NIST ThermoML archive (doi:10.1016/j.jct.2016.07.015)
“And” between values parts separate entries of the source, which are not always exact repeats. Identical values can stand only once.

Details: Crystal, Calculated from knudsen effusion weight loss

COc1cc(CO)ccc1O [4-hydroxy-3-methoxybenzyl alcohol]
Details | vapor or sublimation pressure
332.19 K | 0.000113 kPa and 0.0001121 kPa and 0.0001096 kPa
334.36 K | 0.0001475 kPa and 0.0001466 kPa and 0.0001413 kPa
336.15 K | 0.0001823 kPa and 0.0001755 kPa and 0.0001867 kPa
338.21 K | 0.0002375 kPa and 0.0002339 kPa and 0.0002403 kPa
340.27 K | 0.0003072 kPa and 0.0002982 kPa and 0.0003122 kPa
342.14 K | 0.0003845 kPa and 0.0003697 kPa and 0.0003916 kPa
344.21 K | 0.0005061 kPa and 0.0004935 kPa and 0.000506 kPa
346.27 K | 0.0006422 kPa and 0.0006234 kPa and 0.0006502 kPa
348.13 K | 0.0008066 kPa and 0.0007737 kPa and 0.0008145 kPa
350.15 K | 0.001038 kPa and 0.001007 kPa and 0.001064 kPa
